For assay [1], the target named is c-Met kinase (1038-1346AA) (Homo sapiens (Human), UniProt P08581). Description: c-Met in vitro kinase assay (Lance Ultra ULight-TK). It counts as biochemical. The conditions noted are these: c-Met kinase 12.5 nM, ATP 2.5 uM, 30° C.; read-out: c-Met Enzyme IC50. As to the method:
c-Met In Vitro Kinase Assay [Method] Use Lance@Ultra Ulight™-TK test kits from PerKinElmer to evaluate the inhibition of c-Met kinase by the compounds [Instrument] ENVISION plate reader of PerKinElmer […] Then ATP (final concentration 2.5 uM) and kinase substrate (final concentration 50 nM) are added. […] After 1 hr, the plate is read at 615 nm and 665 nm. The ratio of […] at 665 nm and 615 nm is calculated and used for the data analysis as follows. This assay has a Minimum Significant Ratio (MSA) of 2-3. [Samples] All exampled compounds and Crizotinib as the positive control [Data Analysis] Background—the ratio of 665 nm/615 nm (no enzyme):0.003285 • Max—the ratio of 665 nm/615 nm (no test compound):0.075356 [formula] [Software] Use CBIS data analysis software to calculate IC50 values

Assay [2] concerns the target c-Met protein in S114 cells (Homo sapiens (Human), UniProt P08581). The assay can be described thus: S114 cell-based ELISA, phosphorylation of c-Met protein. To be noted: 30 min compound incubation, phospho-c-Met ELISA. How it is done: Cell-Based ELISA [Method] Use ELISA to measure the phosphorylation of c-Met protein in […] cells [Instrument] ENVISION plate reader of PerKinElmer […] [Procedure] […] cells are cultured in DMEM medium (containing 10% FBS). When cells reach 80% confluency, they are collected by trypsinization and centrifugation at 800 rpm for 5 min. The cells are re-suspended in DMEM and adjusted to a density of 500,000 cells/mL. A 96-well plate is pretreated with a solution of Firbronectin in PBS (5 μg/mL) at 100 μL per well for 2 hr. The cell suspension is split into the 96-well culture plate at 100 uL per well and incubated (37° C., 5% CO2) overnight. The capture antibody is diluted with 1/2 Tris-ammonium bicarbonate buffer (1:1000) and transferred into a 96-well absorption plate (70 μL per well) at 4° C. overnight. The solution is discarded and the plate is washed with blocking buffer, followed by adding blocking buffer (150 μL per well), and kept at room temperature for 1 hr. The medium in the 96-well culture plate is discarded and the plate is washed with DMEM (without FBS). Then 80 μL of DMEM (without FBS) and 20 μL of test compound solution at various concentrations in DMEM (without FBS) are added. The culture plate is kept in a culture incubator for 30 min (37° C., 5% CO2). The cell culture medium is discarded and the culture plate is washed with PBS, followed by adding lysis buffer (50 μL per well) and incubated at 4° C. for 20 min. The solution in the absorption plate is discarded and the plate is washed with binding buffer. To each well of the absorption plate is added binding buffer (50 μL) and lysate (40 μL) from the above culture plate; then the plate is incubated at room temperature for 2 hours. The culture medium is discarded and the plate is washed twice with binding buffer, followed by adding a solution of 1st antibody (diluted with binding buffer 1:1000, 100 μL per well) and incubated at 37° C. for 1 hr. The solution is discarded and the plate is washed twice with binding buffer. Then a solution of 2nd antibody is added (100 μL per well) and incubated at 37° C. for another hour. The medium is discarded and the plate is washed twice with binding buffer and once with PBS. To each well, 100 μL of A.B.T.S solution is added and incubated at 37° C. for 30 min. Then OD405 is analyzed on an ENVISION plate reader. This assay has a Minimum Significant Ratio (MSA) of 2-3. [Samples] All exemplified compounds and Crizotinib as the positive control [Data Analysis] Background (no cell lysate): 0.084 • Max (no test compound): 0.517 [formula] [Software] Use CBIS data analysis software to calculate IC50 values

Broadly, the IC50 is the concentration that inhibits the measured activity by half.

Sequence of c-Met kinase (1038-1346AA) (P08581 1038-1346): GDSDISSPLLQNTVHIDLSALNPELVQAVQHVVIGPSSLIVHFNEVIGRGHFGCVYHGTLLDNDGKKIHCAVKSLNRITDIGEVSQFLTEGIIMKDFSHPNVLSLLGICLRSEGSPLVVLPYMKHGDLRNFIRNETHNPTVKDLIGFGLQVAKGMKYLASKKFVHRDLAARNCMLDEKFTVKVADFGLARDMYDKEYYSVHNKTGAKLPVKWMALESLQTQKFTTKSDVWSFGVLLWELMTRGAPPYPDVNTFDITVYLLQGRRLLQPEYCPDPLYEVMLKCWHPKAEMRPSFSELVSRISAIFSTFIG
Sequence of c-Met protein in S114 cells (P08581 25-1390): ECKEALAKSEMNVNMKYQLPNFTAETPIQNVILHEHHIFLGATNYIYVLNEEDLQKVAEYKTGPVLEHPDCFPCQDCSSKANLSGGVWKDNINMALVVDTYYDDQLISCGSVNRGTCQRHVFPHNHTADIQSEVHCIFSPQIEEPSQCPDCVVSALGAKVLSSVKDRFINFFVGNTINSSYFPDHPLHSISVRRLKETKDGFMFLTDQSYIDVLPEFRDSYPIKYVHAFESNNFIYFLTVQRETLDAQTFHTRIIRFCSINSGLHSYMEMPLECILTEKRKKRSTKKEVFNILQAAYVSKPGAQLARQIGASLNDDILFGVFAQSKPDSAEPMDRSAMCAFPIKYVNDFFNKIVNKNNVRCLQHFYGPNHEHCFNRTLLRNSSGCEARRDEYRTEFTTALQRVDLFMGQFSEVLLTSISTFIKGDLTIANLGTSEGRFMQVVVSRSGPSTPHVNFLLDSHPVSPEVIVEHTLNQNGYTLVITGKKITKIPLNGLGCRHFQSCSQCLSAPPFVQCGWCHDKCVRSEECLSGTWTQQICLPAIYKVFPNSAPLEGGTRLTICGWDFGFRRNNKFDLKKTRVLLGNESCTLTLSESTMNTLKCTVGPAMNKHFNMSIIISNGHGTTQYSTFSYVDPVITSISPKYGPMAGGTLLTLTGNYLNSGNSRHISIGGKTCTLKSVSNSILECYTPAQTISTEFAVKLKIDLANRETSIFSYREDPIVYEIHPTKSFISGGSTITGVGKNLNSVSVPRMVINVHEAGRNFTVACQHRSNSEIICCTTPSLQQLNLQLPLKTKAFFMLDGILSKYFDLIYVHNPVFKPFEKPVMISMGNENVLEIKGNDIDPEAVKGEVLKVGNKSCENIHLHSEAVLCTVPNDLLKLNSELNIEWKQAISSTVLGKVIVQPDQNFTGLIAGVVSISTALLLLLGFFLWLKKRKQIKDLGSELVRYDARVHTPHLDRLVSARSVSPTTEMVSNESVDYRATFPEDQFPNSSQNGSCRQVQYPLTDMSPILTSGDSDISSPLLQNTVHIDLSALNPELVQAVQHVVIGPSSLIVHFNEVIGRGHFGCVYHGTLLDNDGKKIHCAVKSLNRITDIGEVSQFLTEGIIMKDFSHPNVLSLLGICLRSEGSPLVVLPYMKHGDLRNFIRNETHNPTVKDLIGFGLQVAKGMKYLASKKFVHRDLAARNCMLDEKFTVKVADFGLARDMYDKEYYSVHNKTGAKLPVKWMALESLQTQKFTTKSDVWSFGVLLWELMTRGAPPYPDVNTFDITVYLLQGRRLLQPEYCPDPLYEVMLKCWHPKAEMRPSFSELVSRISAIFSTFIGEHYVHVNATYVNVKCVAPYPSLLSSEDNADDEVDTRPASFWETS

As to `Cn1cc2cc(C(F)(F)c3nnc4ccc(-c5cnn(CC6COCO6)c5)nn34)c(F)cc2n1` (stereo not drawn) [Example 41], the IC50 in assay [1] came to 127 nM; in assay [2], 348 nM.
On the same counts, the results for `CNS(=O)(=O)c1ccc(-c2ccc3nnc(C(F)(F)c4cc5cn(C)nc5cc4F)n3n2)cc1F` [Example 42] are 136 nM and 406 nM.
Consider `Cn1cc2cc(C(F)(F)c3nnc4ccc(-c5cc(F)c6c(c5)CNC6=O)nn34)c(F)cc2n1` [Example 43], for which the IC50 in assay [1] was determined as 23.3 nM; in assay [2], 35.2 nM.
`Cn1cc2cc(C(F)(F)c3nnc4ccc(-c5cnn(C6CC6)c5)nn34)c(F)cc2n1` [Example 44]: the 50% inhibitory concentration (IC50) in assay [1] came out at 31.6 nM; in assay [2], 7.8 nM.
As for `Cn1cc2cc(C(F)(F)C3(Cl)NN=C4C=CC(c5cnn(C6CC6)c5)=CN43)c(F)cc2n1` (stereo not drawn) [Example 45], the IC50 in assay [1] was found to be 274 nM; in assay [2], 270 nM.
For `Cn1cc2cc(C(F)(F)c3nnc4ccc(-c5cnn(C6CC6)c5)cn34)c(F)cc2n1` [Example 46] the same measures were 159 nM and 139 nM.
For `Cn1cc2cc(C(F)(F)c3nnc4ncc(-c5cnn(C6CC6)c5)cn34)c(F)cc2n1` [Example 47] the same measures were 38 nM and 22 nM.
For `Nc1nc2cc(F)c(Cc3nnc4ccc(-c5cnn(C6CC6)c5)nn34)cc2s1` [Example 49], the IC50 in assay [1] came to 38 nM; in assay [2], 65 nM.
For `Fc1cc2n[nH]cc2cc1C(F)(F)c1nnc2ccc(-c3cnn(C4CC4)c3)nn12` [Example 50] the same measures were 1440 nM and 527 nM.

(Values after patent US9695175B2, “Highly selective c-Met inhibitors as anticancer agents” (Crown Bioscience Inc. (Taiwan), priority 2012, dated 2017).)
